Experimental data as given in patent US20230014907A1, “INHIBITORS OF APOL1 AND METHODS OF USING SAME” (Vertex Pharmaceuticals Incorporated, priority 2020, published 2023).

Legend:
APOL1 G1 Protein = molecular target: T1, APOL1 G1 Protein (Homo sapiens, UniProt O14791, I384M/S342G); assay: Trypanosoma brucei brucei Lysis Assay Using APOL1 Recombinant Protein (AlamarBlue viability); assay type: cell-based; settings: read-out: Trypanosomal Assay (IC50)
T1 sequence (O14791 28-398 S342G/I384M): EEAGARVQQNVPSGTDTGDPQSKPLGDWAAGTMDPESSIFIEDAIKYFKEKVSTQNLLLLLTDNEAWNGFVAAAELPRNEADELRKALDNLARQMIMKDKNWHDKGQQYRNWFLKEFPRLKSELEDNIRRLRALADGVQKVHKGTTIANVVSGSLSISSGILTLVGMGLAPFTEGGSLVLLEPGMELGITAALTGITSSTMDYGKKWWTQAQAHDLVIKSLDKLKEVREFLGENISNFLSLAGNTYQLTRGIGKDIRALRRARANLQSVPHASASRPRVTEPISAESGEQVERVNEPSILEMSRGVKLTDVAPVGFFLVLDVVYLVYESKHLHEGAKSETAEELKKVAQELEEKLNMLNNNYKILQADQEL
Text: Trypanosoma brucei brucei is a blood stream parasite to which human, gorillas and baboon are immune due to the presence of the APOL1 protein in their HDL particles. The protein is uptaken by the parasite via the TbHpHb receptor located in its flagellar pocket and is bonded by the Hpr protein contained in the HDL particles which triggers the receptor endocytosis by the parasite.
Following endocytosis, the formed vesicle containing the HDL particle matures from early to late endosome, and subsequently to lysosome. The concomitant pH change in the lumen of the vesicle triggers the insertion of the APOL1 protein into the membrane of the late endosome/lysosome and hereby triggers lysosomal membrane permeabilization and as a further downstream event, trypanosome lysis. Trypanosoma brucei brucei is sensitive to lysis by all three APOL1 variants (G0, G1, and G2).
The Trypanosoma brucei brucei lysis assay is a lysis assay of the parasite using recombinant APOL1 protein variant followed by a fluorescent detection method of viability by the addition of AlamarBlue reagent to the assay well, a general metabolic redox indicator (AlamarBlue assay).
Briefly, the AlamarBlue active compound, the resazurin, a blue, water soluble, non-toxic and cell permeable molecule, which can be followed by absorbance, is reduced by various metabolic pathways into resorufin, a red compound which can be followed by either absorbance or fluorescence. The assay allows the calculation of the percent viability (percent of living Trypanosomes remaining in each well) at the end of a lysis relative to the untreated condition by interpolation of fluorescent values (FLU) on a standard curve with a known amount of seeded trypanosome/well.
Trypanosoma brucei brucei (ATCC, Cat. No. PRA-382) • Lister 427 VSG 221 bloodstream form.
Thaw/Expansion Media (ATCC Medium 2834 Modified HMI-9 Medium)
Assay Media (No Phenol Red/No FBS): Make on Day of Use
Hypoxanthine Stock (100×)-9 (10×)
Equipment • E1-Clip Tip pipette 12 channel adjustable 2-125 μL, Cat. No. 4672070BT • ThermoFisher MultiDrop 384, Cat. No. 5840300 • Multidrop • Agilent Bravo, Cat. No. G5409A • Bravo • SpectraMax M5
Trypanosoma brucei brucei Culture
Step 2, Day 4 • Centrifuge at 800×g for 5 minutes at room temperature. • Resuspend in 1 mL media. • Make a 1:25 fold dilution (10 μL/240 μL media). • Count on a hemocytometer (after adding parasites). • Let sit for 1-2 minutes for the parasites to settle. • Count should be approximately 100 viable motile parasites/16 grid or approximately 25×10^6 parasites/flask. • Passage the parasites by adding 1×10^6 parasites/T75 flask in 20 mL media. • Passage the parasites by adding 2.33×10^6 parasites/T175 flask in 46.6 mL media. • For every T75 flask should make enough for approximately 1.5×384 well assay plates. • For every T175 flask should make enough for approximately 3.8×384 well assay plates.
Step 3, Day 6 • Centrifuge at 800×g for 5 minutes. • Resuspend in 3 mL assay media (No phenol red, no FBS) per 75 starting flask. • Resuspend in 7 mL assay media (No phenol red, no FBS) per 175 flask • Make a 1:25 fold dilution. • Count by hemocytometer. • Every T75 flask set up should have approximately 75×10^6 parasites/flask (verify doubling time=8.7 hours±1 hour). • Every T175 flask set up should have approximately 175×10^6 parasites/flask (verify doubling time=8.7 hours±1 hour). • Require 46×10^6 parasites per 384 well plate (at 120,000 parasites per well). […]

G1 APOL1 = molecular target: T2, G1 APOL1 (Homo sapiens, UniProt O14791, I384M/S342G); assay: Acute APOL1 Thallium Assay with Inducible Stable Clones of HEK 293 Cells; assay type: cell-based; settings: HEK 293 inducible stable clones, G1 APOL1; read-out: Thallium Assay (IC50)
T2 construct: expressed in transfected cells
T2 sequence (O14791 28-398 S342G/I384M): T1 sequence (O14791 28-398 S342G/I384M)
How it was run: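 HEK293 T-Rex cells with a stable tetracycline-inducible G1 APOL1 construct (clone DC3.25) were induced with tetracycline at plating, 26000 cells per well, then incubated at 37° C. They were loaded with an AM-ester thallium-sensitive dye and stimulated with Tl+. The fluorescence rise measured Tl+ influx through APOL1 pores.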

IC50 (G1 APOL1) | SMILES | IC50 (APOL1 G1 Protein)
< 0.25 µM | NCCCCc1c(-c2ccc(F)cc2)[nH]c2c(F)cc(F)cc12 [Compound 511, 4-[5,7-difluoro-2-(4-fluorophenyl)-1H-indol-3-yl]butan-1-amine] | < 0.25 µM
< 0.25 µM | CC(O)C(=O)NCCCc1c(-c2ccc(F)cc2)[nH]c2ccc(F)cc12 (racemic) [Compound 507] | 0.25 to 1 µM
> 1 µM | C[C@@H](O)CNC(=O)CCc1c(-c2ccc(F)cc2)[nH]c2ccc(F)cc12 [Compound 79] | > 1 µM
0.25 to 1 µM | O=C(CCc1c(-c2ccc(F)cc2)[nH]c2c(F)cc(F)cc12)Nc1c[nH][nH]c1=O [Compound 97] | > 1 µM
> 1 µM | O=C(CCc1c(-c2ccc(F)cc2)[nH]c2c(F)cc(F)cc12)Nc1ncco1 [Compound 162] | > 1 µM
< 0.25 µM | O=C(CCc1c(-c2ccc(F)cc2)[nH]c2c(F)cc(F)cc12)NC1(CO)CC1 [Compound 131] | < 0.25 µM
< 0.25 µM | O=C(CCc1c(-c2ccc(F)cc2)[nH]c2c(F)cc(F)cc12)NC(CO)CF (stereo not drawn) [Compound 99] | < 0.25 µM
> 1 µM | CCC(C)(O)CNC(=O)CCc1c(-c2ccc(F)cc2)[nH]c2ccc(F)cc12 (stereo not drawn) [Compound 74] | > 1 µM
> 1 µM | CC(C)C[C@@H](CO)NC(=O)CCc1c(-c2ccc(F)cc2)[nH]c2c(F)cc(F)cc12 [Compound 158] | > 1 µM
0.25 to 1 µM | NC(=O)[C@@H](CO)NC(=O)CCc1c(-c2ccc(F)cc2)[nH]c2c(F)cc(F)cc12 [Compound 98] | > 1 µM
> 1 µM | CC(C)(C)OC(=O)NC1CN(C(=O)CCc2c(-c3ccc(F)cc3)[nH]c3ccc(F)cc23)C1 [Compound 52] | > 1 µM
0.25 to 1 µM | COCC1(NC(=O)CCc2c(-c3ccc(F)cc3)[nH]c3c(F)cc(F)cc23)CC1 [Compound 102] | 0.25 to 1 µM
< 0.25 µM | O=C(CCc1c(-c2ccc(F)cc2)[nH]c2c(F)cc(F)cc12)NC(CCO)C(=O)O (stereo not drawn) [Compound 188] | 0.25 to 1 µM
> 1 µM | O=C(CCc1c(-c2ccc(F)cc2)[nH]c2ccc(F)cc12)NC1CCCNC1=O (stereo not drawn) [Compound 26] | > 1 µM
> 1 µM | O=C(CCc1c(-c2ccc(F)cc2)[nH]c2ccc(F)cc12)NCC1(O)CC1 [Compound 82] | > 1 µM
> 1 µM | CS(=O)(=O)NC(=O)CCc1c(-c2ccc(F)cc2)[nH]c2c(F)cc(F)cc12 [Compound 93, 3-[5,7-difluoro-2-(4-fluorophenyl)-1H-indol-3-yl]-N-methylsulfonyl-propanamide] | > 1 µM
0.25 to 1 µM | O=C(CCc1c(-c2ccc(F)cc2)[nH]c2ccc(F)cc12)NC(CO)C1CC1 (stereo not drawn) [Compound 21] | 0.25 to 1 µM
0.25 to 1 µM | CC(NC(=O)CCc1c(-c2ccc(F)cc2)[nH]c2c(F)cc(F)cc12)c1ccn(C)n1 (racemic) [Compound 133] | > 1 µM
0.25 to 1 µM | O=C(CCO)NCCc1c(-c2ccc(F)cc2)[nH]c2c(F)cc(F)cc12 [Compound 361] | 0.25 to 1 µM
> 1 µM | NC1CCCN(C(=O)CCc2c(-c3ccc(F)cc3)[nH]c3ccc(F)cc23)C1 (stereo not drawn) [Compound 56] | > 1 µM
> 1 µM | O=C1CCC(NC(=O)CCc2c(-c3ccc(F)cc3)[nH]c3c(F)cc(F)cc23)C(=O)N1 (stereo not drawn) [Compound 190] | > 1 µM
> 1 µM | CN1CC(NC(=O)CCc2c(-c3ccc(F)cc3)[nH]c3ccc(F)cc23)C(=O)N1 (stereo not drawn) [Compound 41] | > 1 µM
> 1 µM | O=C(CCc1c(-c2ccc(F)cc2)[nH]c2c(F)cc(F)cc12)N1CCC[C@H]1CO [Compound 145] | > 1 µM

IC50 (G1 APOL1) | SMILES | IC50 (APOL1 G1 Protein)
< 0.25 µM | C[C@H](CO)NC(=O)CCc1c(-c2ccc(F)cc2)[nH]c2ccc(F)cc12 [Compound 8] | < 0.25 µM
0.25 to 1 µM | O=C(CCc1c(-c2ccc(F)cc2)[nH]c2c(F)cc(Br)cc12)N[C@@H](CO)C(F)(F)F [Compound 229] | < 0.25 µM
0.25 to 1 µM | C[C@@H](CO)NC(=O)CCc1c(-c2ccc(F)cc2)[nH]c2c(F)cc(F)cc12 [Compound 109] | 0.25 to 1 µM
> 1 µM | O=C(CCc1c(-c2ccc(F)cc2)[nH]c2ccc(F)cc12)NC1CC1c1ccc(F)cc1 (stereo not drawn) [Compound 44] | > 1 µM
> 1 µM | O=C(CCc1c(-c2ccc(F)cc2)[nH]c2c(F)cc(F)cc12)Nc1cccnc1 [Compound 174] | > 1 µM
> 1 µM | CC1(O)CN(C(=O)CCc2c(-c3ccc(F)cc3)[nH]c3ccc(F)cc23)C1 [Compound 86] | > 1 µM
< 0.25 µM | O=C(/C=C/c1c(-c2ccc(F)cc2)[nH]c2c(F)cc(F)cc12)N[C@@H]1C(=O)NC[C@H]1O [Compound 518, (E)-3-[5,7-difluoro-2-(4-fluorophenyl)-1H-indol-3-yl]-N-[(3S,4R)-4-hydroxy-2-oxo-pyrrolidin-3-yl]prop-2-enamide] | < 0.25 µM
– | O=C(CCc1c(-c2ccc(F)cc2)[nH]c2c(F)cc(F)cc12)N[C@H](CO)C(F)(F)F [Compound 128] | 0.25 to 1 µM
– | CON(C)C(=O)CCc1c(-c2ccc(F)cc2)[nH]c2ccccc12 [Compound 237] | > 1 µM
< 0.25 µM | C[C@H](CO)NC(=O)CCc1c(-c2ccc(F)cc2)[nH]c2c(F)cc(Cl)cc12 [Compound 208] | –
0.25 to 1 µM | CC(NC(=O)OCCc1c(-c2ccc(F)cc2)[nH]c2c(F)cc(F)cc12)C(N)=O (racemic) [Compound 460] | –
> 1 µM | O=C(NCCc1c(-c2ccc(F)cc2)[nH]c2c(F)cc(F)cc12)[C@@H]1CCOC1 [Compound 409] | –
> 1 µM | O=C(CO)NCCc1c(-c2ccc(F)cc2)[nH]c2c(F)cc(F)cc12 [Compound 365] | –
> 1 µM | O=C1C[C@H](NC(=O)CCCc2c(-c3ccc(F)cc3)[nH]c3c(F)cc(F)cc23)C(=O)N1 [Compound 245] | –
> 1 µM | COC1CC1NC(=O)OCCc1c(-c2ccc(F)cc2)[nH]c2c(F)cc(F)cc12 (stereo not drawn) [Compound 479] | –
> 1 µM | O=C(CCCc1c(-c2ccc(F)cc2)[nH]c2c(F)cc(F)cc12)N[C@@H]1CCNC1=O [Compound 247] | –
< 0.25 µM | O=C(NCCO)OCCc1c(-c2ccc(F)cc2)[nH]c2c(F)cc(F)cc12 [Compound 443] | –
0.25 to 1 µM | CC(C)(CO)C(=O)NCCc1c(-c2ccc(F)cc2)[nH]c2c(F)cc(F)cc12 [Compound 341] | –
< 0.25 µM | O=C(NC1(CO)CCC1)OCCc1c(-c2ccc(F)cc2)[nH]c2c(F)cc(F)cc12 [Compound 436] | –
0.25 to 1 µM | NCC(=O)NCCc1c(-c2ccc(F)cc2)[nH]c2c(F)cc(F)cc12 [Compound 366] | –
> 1 µM | C[C@H](O)CNC(=O)NCCc1c(-c2ccc(F)cc2)[nH]c2c(F)cc(F)cc12 [Compound 284] | –
0.25 to 1 µM | O=C(NCCc1c(-c2ccc(F)cc2)[nH]c2c(F)cc(F)cc12)C1(O)CC1 [Compound 360] | –
